Assay results: ChEMBL document CHEMBL1201862, “PubChem BioAssay data set” (2004)
Active and inactive are the calls of the source.

Assays:
[1] = target: T1, Polyadenylate-binding protein 1 (Homo sapiens, UniProt P11940); test: PABP1 MLLE–PAM2 interaction inhibitors, dose response, miRNA deadenylation inhibitor project, biochemical, fluorescence polarization, Cy5-PAM2 peptide, secondary (AID 602260); assay type: functional; conditions: read-out: IC50_Mean
[2] = tested on: Vero; test: Vero cell cytotoxicity, cytotoxicity control for flavivirus capping enzyme inhibitors (AID 588742); assay type: functional; conditions: Chlorocebus sabaeus
[3] = target: Glucose-6-phosphate 1-dehydrogenase (Homo sapiens, UniProt P11413); test: human G6PD enzyme inhibitors, dose response, selectivity assay for P. falciparum G6PD inhibitor project, biochemical, fluorescence (AID 504792); assay type: functional
Sequence of Glucose-6-phosphate 1-dehydrogenase (P11413 whole entry): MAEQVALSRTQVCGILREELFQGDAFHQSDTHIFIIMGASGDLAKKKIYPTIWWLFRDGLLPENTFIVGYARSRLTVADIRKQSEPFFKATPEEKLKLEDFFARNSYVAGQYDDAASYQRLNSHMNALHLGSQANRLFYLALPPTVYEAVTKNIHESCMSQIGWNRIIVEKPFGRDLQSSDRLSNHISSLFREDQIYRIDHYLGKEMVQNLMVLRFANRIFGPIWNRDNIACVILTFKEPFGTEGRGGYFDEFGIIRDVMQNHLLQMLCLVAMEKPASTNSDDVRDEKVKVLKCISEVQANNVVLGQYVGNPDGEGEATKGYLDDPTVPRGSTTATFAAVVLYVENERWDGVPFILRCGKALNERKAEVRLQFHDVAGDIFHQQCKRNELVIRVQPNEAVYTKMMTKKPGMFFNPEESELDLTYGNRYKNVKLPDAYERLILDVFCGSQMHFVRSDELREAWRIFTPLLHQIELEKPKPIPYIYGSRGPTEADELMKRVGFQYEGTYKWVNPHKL

[4] = target: Nonstructural protein 1 (Influenza A virus, UniProt Q194T2); assay type: functional, Influenza A virus (A/California/07/2009(H1N1))
Sequence of Nonstructural protein 1 (Q194T2 whole entry): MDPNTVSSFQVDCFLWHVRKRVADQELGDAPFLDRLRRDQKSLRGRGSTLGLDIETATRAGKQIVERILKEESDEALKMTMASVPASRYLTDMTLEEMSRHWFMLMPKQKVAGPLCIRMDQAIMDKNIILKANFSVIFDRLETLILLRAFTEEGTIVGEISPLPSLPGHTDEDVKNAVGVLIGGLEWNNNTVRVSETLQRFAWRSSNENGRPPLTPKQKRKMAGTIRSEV

[5] = target: T2, Sentrin-specific protease 8 (Homo sapiens, UniProt Q96LD8); assay type: functional
T2 sequence (Q96LD8 whole entry): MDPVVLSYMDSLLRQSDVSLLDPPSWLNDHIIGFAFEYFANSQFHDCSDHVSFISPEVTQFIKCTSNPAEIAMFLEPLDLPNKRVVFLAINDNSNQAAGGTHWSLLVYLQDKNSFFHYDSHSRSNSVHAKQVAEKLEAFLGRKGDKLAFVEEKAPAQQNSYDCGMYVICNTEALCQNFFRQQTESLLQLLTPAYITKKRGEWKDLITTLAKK

[6] = target: T1, Polyadenylate-binding protein 1; test: PABP1 MLLE–PAM2 binding inhibitor potency, dose response, biochemical, fluorescence polarization, FITC-PAM2 peptide (AID 602259); assay type: functional; conditions: read-out: IC50_Mean
[7] = target: T2, Sentrin-specific protease 8; assay type: functional; remark: listed apart in the source
[8] = target: T3, Protein RecA (Mycobacterium tuberculosis, UniProt P9WHJ3); test: Fluorescence Cell-Free Homogeneous Dose Retest to Identify Inhibitors of RecA-Intein Splicing Activity. [Related pubchem assays (depositor defined):AID2097, AID2223, AID489010, AID492950]; assay type: functional
T3 sequence (P9WHJ3 whole entry): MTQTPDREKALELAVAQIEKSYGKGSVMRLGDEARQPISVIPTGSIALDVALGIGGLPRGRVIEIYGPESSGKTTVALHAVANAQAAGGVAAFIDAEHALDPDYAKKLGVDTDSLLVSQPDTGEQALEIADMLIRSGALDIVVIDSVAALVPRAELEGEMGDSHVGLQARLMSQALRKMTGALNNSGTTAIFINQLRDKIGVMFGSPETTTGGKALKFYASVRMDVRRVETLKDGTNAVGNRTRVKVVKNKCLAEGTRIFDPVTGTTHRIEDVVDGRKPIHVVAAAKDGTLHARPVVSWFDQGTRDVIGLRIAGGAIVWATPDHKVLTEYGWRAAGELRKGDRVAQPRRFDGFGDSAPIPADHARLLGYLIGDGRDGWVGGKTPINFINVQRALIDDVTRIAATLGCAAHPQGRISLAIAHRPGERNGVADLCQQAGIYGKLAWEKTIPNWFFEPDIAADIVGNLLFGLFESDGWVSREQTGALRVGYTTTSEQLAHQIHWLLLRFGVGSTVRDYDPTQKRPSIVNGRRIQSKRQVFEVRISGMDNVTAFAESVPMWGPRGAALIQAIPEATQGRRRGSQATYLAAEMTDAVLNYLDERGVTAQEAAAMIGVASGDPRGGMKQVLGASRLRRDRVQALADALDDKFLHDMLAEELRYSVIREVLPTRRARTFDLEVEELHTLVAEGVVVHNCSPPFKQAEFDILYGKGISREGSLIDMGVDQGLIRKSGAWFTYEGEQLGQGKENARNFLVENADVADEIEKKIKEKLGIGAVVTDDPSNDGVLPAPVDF

[9] = target: T4, SUMO-activating enzyme (Homo sapiens, UniProt Q9UBT2); test: inhibitors of in vitro SUMOylation cascade, primary screen, biochemical, HTRF, uHTS (AID 2006); assay type: protein-complex assay
T4 sequence (Q9UBE0 whole entry): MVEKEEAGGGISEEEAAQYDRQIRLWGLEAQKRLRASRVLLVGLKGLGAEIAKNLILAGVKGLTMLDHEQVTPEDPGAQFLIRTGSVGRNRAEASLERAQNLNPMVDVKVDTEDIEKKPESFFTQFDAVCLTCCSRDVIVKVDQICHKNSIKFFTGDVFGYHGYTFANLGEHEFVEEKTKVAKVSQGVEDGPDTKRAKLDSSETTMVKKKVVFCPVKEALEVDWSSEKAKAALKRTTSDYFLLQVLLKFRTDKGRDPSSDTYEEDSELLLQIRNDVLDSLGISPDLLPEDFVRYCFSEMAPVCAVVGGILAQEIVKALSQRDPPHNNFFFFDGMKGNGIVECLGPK
T4 sequence (Q9UBT2 whole entry): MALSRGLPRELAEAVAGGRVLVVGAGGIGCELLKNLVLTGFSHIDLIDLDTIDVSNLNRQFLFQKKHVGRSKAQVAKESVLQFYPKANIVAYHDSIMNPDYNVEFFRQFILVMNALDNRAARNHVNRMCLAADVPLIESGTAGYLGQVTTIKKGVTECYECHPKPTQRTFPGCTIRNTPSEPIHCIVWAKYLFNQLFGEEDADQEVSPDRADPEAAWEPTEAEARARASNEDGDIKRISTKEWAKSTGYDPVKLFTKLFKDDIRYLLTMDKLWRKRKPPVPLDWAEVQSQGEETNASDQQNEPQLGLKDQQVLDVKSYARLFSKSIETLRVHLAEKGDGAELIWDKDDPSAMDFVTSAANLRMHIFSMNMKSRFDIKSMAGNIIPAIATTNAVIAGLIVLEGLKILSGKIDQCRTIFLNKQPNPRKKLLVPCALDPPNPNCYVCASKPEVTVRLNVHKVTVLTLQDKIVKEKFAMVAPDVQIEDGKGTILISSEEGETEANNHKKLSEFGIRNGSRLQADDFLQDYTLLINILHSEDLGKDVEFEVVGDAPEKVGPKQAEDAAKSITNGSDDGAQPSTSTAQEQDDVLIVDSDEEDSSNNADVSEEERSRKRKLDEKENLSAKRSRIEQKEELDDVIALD

[10] = target: SUMO E1/E2 (Homo sapiens, UniProt P63279+Q9UBE0+Q9UBT2); test: SAR analysis of SUMOylation using HTRF in an in-Vitro dose response assay. [Related pubchem assays (depositor defined):AID2006, AID2011, AID2018, AID2069, AID2658]; assay type: functional
Sequence of SUMO E1/E2 (Q9UBE0 whole entry): as the sequence (Q9UBE0 whole entry) above
Sequence of SUMO E1/E2 (Q9UBT2 whole entry): as the sequence (Q9UBT2 whole entry) above
Sequence of SUMO E1/E2 (P63279 whole entry): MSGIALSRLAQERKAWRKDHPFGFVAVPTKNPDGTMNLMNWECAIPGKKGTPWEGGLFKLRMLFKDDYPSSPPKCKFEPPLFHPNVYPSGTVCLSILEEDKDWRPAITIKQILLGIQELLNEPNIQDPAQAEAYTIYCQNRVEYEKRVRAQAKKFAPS

[11] = target: T4, SUMO-activating enzyme; test: SUMOylation inhibitor hit validation, confirmation, SUMOylation inhibitor project, biochemical, AlphaScreen (AID 2018); assay type: functional
[12] = target: T5, Histone-lysine N-methyltransferase NSD2 (Homo sapiens, UniProt O96028); assay type: biochemical
T5 sequence (O96028 whole entry): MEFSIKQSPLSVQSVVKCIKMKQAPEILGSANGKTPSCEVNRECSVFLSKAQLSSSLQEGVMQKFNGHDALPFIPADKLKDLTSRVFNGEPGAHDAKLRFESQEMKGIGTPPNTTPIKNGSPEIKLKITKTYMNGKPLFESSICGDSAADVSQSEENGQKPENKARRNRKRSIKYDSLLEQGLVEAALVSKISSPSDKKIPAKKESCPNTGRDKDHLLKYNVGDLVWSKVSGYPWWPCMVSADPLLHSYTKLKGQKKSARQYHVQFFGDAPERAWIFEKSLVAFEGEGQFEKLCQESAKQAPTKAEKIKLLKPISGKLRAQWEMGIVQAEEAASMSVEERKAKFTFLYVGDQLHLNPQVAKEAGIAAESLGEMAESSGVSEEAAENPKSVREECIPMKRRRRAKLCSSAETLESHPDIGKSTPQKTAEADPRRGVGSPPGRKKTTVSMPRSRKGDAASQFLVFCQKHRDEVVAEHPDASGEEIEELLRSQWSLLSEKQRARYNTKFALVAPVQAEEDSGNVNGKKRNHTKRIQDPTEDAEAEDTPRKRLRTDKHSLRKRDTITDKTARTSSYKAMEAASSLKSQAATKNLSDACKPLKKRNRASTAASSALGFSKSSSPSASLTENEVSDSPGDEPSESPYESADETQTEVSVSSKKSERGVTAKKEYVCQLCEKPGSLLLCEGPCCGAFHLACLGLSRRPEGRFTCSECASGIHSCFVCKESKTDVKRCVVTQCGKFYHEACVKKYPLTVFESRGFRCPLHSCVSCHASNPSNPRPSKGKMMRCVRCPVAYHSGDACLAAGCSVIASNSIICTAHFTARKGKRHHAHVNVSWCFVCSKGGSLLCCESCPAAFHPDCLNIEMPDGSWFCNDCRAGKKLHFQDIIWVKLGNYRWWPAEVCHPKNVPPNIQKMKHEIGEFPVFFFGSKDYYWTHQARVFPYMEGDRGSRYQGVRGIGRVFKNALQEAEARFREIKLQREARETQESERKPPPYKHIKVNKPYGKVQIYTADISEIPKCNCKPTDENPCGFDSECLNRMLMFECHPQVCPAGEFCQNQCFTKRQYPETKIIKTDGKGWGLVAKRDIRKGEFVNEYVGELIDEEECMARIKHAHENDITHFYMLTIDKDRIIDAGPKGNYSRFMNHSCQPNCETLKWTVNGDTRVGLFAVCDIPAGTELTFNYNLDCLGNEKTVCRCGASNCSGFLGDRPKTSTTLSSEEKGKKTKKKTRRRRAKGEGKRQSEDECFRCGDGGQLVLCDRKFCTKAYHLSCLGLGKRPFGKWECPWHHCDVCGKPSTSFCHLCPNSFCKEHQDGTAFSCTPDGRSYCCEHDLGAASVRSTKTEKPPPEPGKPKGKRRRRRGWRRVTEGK

[13] = target: Genome polyprotein (dengue virus type 2, UniProt P29990); test: Dengue-2 NS5 methyltransferase inhibitors, primary screen, biochemical, confirmation dose response (AID 588689); assay type: functional
[14] = target: Phospholipase D2 (Homo sapiens, UniProt O14939); test: PLD2 inhibitor potency in cells, dose response (AID 602147); assay type: functional;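 also: cellular assay in HEK293 cells overexpressing GFP-tagged PLD2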
Sequence of Phospholipase D2 (O14939 whole entry): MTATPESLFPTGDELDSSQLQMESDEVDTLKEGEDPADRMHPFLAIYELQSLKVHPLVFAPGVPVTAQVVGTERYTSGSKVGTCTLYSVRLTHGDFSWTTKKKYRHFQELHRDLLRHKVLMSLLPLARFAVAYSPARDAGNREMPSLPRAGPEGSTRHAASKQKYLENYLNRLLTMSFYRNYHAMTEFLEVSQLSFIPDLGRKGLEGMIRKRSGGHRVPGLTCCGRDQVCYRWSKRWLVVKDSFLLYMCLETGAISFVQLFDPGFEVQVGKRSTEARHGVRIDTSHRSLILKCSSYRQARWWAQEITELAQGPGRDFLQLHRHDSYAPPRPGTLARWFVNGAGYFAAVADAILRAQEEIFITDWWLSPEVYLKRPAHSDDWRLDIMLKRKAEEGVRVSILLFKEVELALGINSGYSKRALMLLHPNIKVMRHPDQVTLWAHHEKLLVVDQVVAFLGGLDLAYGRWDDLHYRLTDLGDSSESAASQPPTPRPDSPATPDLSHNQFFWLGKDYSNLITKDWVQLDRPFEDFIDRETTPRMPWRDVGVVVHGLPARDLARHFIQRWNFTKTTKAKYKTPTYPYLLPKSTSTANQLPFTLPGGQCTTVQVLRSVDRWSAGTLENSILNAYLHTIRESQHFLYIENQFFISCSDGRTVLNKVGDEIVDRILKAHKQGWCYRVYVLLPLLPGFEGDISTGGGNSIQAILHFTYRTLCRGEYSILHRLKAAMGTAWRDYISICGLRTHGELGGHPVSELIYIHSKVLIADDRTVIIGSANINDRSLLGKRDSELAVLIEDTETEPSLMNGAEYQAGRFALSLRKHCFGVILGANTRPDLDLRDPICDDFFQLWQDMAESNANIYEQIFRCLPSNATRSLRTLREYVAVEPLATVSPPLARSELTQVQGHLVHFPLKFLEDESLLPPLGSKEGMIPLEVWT

[15] = target: Phospholipase D1 (Homo sapiens, UniProt Q13393); test: PLD1 inhibitor potency in cells, dose response (AID 602151); assay type: functional;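 also: cellular PLD1 assay in Calu-1 cells stimulated with PMA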
Sequence of Phospholipase D1 (Q13393 whole entry): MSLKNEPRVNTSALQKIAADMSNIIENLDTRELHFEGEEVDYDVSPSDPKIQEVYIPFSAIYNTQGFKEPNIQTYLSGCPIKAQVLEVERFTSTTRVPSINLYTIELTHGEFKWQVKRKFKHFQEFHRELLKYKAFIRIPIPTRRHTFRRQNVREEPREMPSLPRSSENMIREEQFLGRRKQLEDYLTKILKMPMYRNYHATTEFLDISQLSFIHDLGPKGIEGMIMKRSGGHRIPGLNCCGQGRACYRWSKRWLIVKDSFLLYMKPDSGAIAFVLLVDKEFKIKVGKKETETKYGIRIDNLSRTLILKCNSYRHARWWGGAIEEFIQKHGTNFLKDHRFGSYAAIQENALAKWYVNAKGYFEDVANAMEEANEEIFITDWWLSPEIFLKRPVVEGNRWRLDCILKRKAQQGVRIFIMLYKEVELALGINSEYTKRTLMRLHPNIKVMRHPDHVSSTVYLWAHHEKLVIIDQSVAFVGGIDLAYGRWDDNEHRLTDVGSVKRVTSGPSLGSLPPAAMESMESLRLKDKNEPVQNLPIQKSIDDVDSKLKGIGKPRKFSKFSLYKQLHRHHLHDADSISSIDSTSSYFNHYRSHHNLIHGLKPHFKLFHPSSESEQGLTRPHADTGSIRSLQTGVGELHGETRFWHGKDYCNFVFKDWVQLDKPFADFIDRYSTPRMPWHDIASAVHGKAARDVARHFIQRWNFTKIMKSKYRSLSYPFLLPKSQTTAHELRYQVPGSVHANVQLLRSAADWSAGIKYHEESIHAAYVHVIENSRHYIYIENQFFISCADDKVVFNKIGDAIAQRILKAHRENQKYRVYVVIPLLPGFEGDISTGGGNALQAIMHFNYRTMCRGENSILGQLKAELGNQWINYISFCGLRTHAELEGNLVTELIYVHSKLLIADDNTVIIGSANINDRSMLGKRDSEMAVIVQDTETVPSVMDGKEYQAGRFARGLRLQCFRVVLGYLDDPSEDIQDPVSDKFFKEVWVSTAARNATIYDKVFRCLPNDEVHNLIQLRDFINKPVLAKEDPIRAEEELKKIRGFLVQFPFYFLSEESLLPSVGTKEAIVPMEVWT

T1 sequence (P11940 whole entry): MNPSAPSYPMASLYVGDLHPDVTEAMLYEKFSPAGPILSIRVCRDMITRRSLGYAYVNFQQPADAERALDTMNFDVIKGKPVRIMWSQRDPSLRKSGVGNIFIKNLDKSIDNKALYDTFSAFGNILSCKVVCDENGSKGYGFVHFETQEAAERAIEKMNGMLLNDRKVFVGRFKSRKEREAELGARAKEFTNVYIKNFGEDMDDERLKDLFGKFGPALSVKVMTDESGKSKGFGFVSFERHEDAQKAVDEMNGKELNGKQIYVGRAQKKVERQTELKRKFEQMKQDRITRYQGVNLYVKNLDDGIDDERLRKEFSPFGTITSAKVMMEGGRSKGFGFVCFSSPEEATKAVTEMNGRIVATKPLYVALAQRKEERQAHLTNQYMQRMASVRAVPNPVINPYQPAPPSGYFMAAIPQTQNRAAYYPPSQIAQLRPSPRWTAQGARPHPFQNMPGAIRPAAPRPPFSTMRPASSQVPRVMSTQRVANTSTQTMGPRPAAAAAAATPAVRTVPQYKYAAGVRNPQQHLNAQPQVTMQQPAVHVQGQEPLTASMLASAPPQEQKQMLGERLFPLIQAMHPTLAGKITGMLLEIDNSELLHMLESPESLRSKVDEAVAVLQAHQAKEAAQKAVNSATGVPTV

Cc1cnc(C=NNC(N)=S)c2cccc(N)c12
IC50 [1]: > 66 µM (inactive) | CC50 [2]: 4.93 µM (active) | IC50 [3]: 32.1 µM (inactive) | IC50 [4]: 2.39 µM (active) | IC50 [5]: 2.83 µM (active) | IC50 [6]: > 66 µM (inactive) | IC50 [7]: 8.74 µM (active)

CCCCn1c(NC(=O)c2ccc(Br)o2)c(S(=O)(=O)c2ccccc2)c2nc3ccccc3nc21
CC50 [2]: > 40 µM (active) | EC50 [8]: 108 µM (inconclusive) | IC50 [9]: 10.6 µM (active) | IC50 [10]: 20.3 µM (active) | IC50 [11]: 2.8 µM (active) | AC50 [12]: 7.79 µM (active) | IC50 [13]: 75.4 µM (active)

C[C@@H](CN1CCC(n2c(=O)[nH]c3cc(Br)ccc32)CC1)NC(=O)c1ccc(F)cc1
IC50 [14]: 0.34 µM (active) | IC50 [15]: 0.004 µM (active)

O=C(NCCN1CCC2(CC1)C(=O)NCN2c1ccccc1)c1cc2cc(F)ccc2[nH]1
IC50 [14]: 0.07 µM (active) | IC50 [15]: 0.1 µM (active)
